Reference: ChEMBL document CHEMBL5108016, “Design, synthesis and neurite outgrowth activity of novel ganglioside GM1 derivatives by remodeling of the fatty acid moiety” (Eur J Med Chem, 2022)
Activity calls are given as the source filed them. The calls are words filed in the database; no cut-off is given here.

Experiments:
[1] = Cytotoxicity against mouse Neuro2a cells assessed as inhibition of cell growth incubated for 24 hrs by MTT assay; type: toxicity, cell-based, N2a
N2a [2] = experiment: Induction of neurite outgrowth in mouse Neuro2a cells assessed as increase in GAP43 protein expression at 25 uM incubated for 24 hrs by immunoblotting analysis; type: functional, cell-based
Cortical neurone [3] = experiment: Induction of neurite outgrowth in C57BL/6 mouse Primary cortical neuron assessed as increase in total neurite length at 25 uM incubated for 24 hrs (reference value: 58.3 +/- 8.68 […]); type: functional
Cortical neurone [4] = experiment: Induction of neurite outgrowth in C57BL/6 mouse Primary cortical neuron assessed as change in neurite number per cell at 25 uM incubated for 24 hrs; type: functional, cell-based
N2a [5] = experiment: Upregulation of LSS gene expression in mouse Neuro2a cells by STRING analysis; type: functional, cell-based
N2a [6] = experiment: Upregulation of HMGCS1 gene expression in mouse Neuro2a cells by STRING analysis; type: functional, cell-based
N2a [7] = experiment: Upregulation of MVD gene expression in mouse Neuro2a cells by STRING analysis; type: functional, cell-based
N2a [8] = experiment: Upregulation of NSDHL gene expression in mouse Neuro2a cells by STRING analysis; type: functional, cell-based
N2a [9] = experiment: Upregulation of FDFT1 gene expression in mouse Neuro2a cells by STRING analysis; type: functional, cell-based
N2a [10] = experiment: Upregulation of ACAT2 gene expression in mouse Neuro2a cells by STRING analysis; type: functional, cell-based
N2a [11] = experiment: Upregulation of FDPS gene expression in mouse Neuro2a cells by STRING analysis; type: functional, cell-based
N2a [12] = experiment: Upregulation of CYP51 gene expression in mouse Neuro2a cells by STRING analysis; type: functional, cell-based
N2a [13] = experiment: Upregulation of SREBP2 gene expression in mouse Neuro2a cells by STRING analysis; type: functional, cell-based
N2a [14] = experiment: Upregulation of SREBP2 mRNA expression in mouse Neuro2a cells by qRT-PCR analysis; type: functional, cell-based
N2a [15] = experiment: Upregulation of FDF1 mRNA expression in mouse Neuro2a cells by qRT-PCR analysis; type: functional, cell-based
N2a [16] = experiment: Upregulation of DHCR7 mRNA expression in mouse Neuro2a cells by qRT-PCR analysis; type: functional, cell-based
N2a [17] = experiment: Upregulation of CYP51 mRNA expression in mouse Neuro2a cells by qRT-PCR analysis; type: functional, cell-based
N2a [18] = experiment: Upregulation of MVK mRNA expression in mouse Neuro2a cells by qRT-PCR analysis; type: functional, cell-based
N2a [19] = experiment: Upregulation of HMGCS mRNA expression in mouse Neuro2a cells by qRT-PCR analysis; type: functional, cell-based
N2a [20] = experiment: Upregulation of HMGCR mRNA expression in mouse Neuro2a cells by qRT-PCR analysis; type: functional, cell-based
N2a [21] = experiment: Upregulation of FDPS mRNA expression in mouse Neuro2a cells by qRT-PCR analysis; type: functional, cell-based
N2a [22] = experiment: Upregulation of NSDHL mRNA expression in mouse Neuro2a cells by qRT-PCR analysis; type: functional, cell-based
N2a [23] = experiment: Upregulation of MVD mRNA expression in mouse Neuro2a cells by qRT-PCR analysis; type: functional, cell-based
N2a [24] = experiment: Upregulation of LSS mRNA expression in mouse Neuro2a cells by qRT-PCR analysis; type: functional, cell-based
N2a [25] = experiment: Upregulation of ID11 mRNA expression in mouse Neuro2a cells by qRT-PCR analysis; type: functional, cell-based
N2a [26] = experiment: Upregulation of SQLE mRNA expression in mouse Neuro2a cells by qRT-PCR analysis; type: functional, cell-based
N2a [27] = experiment: Upregulation of PMVK mRNA expression in mouse Neuro2a cells by qRT-PCR analysis; type: functional, cell-based
N2a [28] = experiment: Upregulation of DHCR7 protein expression in mouse Neuro2a cells by parallel reaction monitoring analysis; type: functional, cell-based
N2a [29] = experiment: Upregulation of HMGCR protein expression in mouse Neuro2a cells by parallel reaction monitoring analysis; type: functional, cell-based
N2a [30] = experiment: Upregulation of NSDHL protein expression in mouse Neuro2a cells by parallel reaction monitoring analysis; type: functional, cell-based
N2a [31] = experiment: Upregulation of CYP51 protein expression in mouse Neuro2a cells by parallel reaction monitoring analysis; type: functional, cell-based
N2a [32] = experiment: Upregulation of FDPS protein expression in mouse Neuro2a cells by parallel reaction monitoring analysis; type: functional, cell-based
N2a [33] = experiment: Upregulation of LSS protein expression in mouse Neuro2a cells by parallel reaction monitoring analysis; type: functional, cell-based
N2a [34] = experiment: Upregulation of HMGCS1 protein expression in mouse Neuro2a cells by parallel reaction monitoring analysis; type: functional, cell-based
N2a [35] = experiment: Induction of cholesterol biosynthesis in mouse Neuro2a cells assessed as increase in total cholesterol level; type: functional, cell-based
N2a [36] = experiment: Induction of cholesterol biosynthesis in mouse Neuro2a cells assessed as increase in total cholesteryl level; type: functional, cell-based
[37] = molecular target: T1, Sterol regulatory element-binding protein 2 (Mus musculus) (UniProt Q3U1N2); experiment: Activation of SREBP2 in mouse Neuro2a cells assessed as increase in mTOR protein expression by immunoblot analysis; type: cell-based; conditions: filed as activator
T1 sequence (whole entry): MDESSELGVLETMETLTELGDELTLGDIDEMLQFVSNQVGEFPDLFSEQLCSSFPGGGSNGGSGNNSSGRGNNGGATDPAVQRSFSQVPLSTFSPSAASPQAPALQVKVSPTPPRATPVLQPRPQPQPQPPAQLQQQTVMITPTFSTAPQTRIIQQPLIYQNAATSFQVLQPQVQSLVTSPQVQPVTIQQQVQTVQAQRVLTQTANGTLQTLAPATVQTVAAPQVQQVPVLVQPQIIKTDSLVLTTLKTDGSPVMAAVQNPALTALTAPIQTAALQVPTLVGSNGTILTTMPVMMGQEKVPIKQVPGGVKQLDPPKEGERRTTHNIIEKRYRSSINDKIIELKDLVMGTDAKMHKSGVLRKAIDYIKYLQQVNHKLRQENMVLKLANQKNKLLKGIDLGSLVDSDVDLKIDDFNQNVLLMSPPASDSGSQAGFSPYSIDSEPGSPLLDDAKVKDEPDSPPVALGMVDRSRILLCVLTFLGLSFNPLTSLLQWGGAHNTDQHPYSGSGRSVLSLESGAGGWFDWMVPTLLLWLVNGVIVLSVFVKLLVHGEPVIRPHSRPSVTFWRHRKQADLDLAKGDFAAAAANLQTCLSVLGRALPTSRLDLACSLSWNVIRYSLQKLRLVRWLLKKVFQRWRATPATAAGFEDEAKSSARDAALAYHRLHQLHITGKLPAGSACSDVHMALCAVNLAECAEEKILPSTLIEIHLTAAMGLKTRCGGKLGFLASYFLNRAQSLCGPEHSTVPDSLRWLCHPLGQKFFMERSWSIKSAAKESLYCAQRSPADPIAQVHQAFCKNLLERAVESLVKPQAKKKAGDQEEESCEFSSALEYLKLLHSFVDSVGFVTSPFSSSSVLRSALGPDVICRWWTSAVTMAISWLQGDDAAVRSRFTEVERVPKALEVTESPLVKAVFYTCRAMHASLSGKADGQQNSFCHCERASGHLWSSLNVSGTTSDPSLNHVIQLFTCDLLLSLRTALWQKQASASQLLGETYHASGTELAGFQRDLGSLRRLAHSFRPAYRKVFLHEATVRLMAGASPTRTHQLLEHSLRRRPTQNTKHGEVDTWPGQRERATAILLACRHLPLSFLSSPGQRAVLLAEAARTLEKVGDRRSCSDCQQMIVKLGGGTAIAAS

[38] = molecular target: T1, Sterol regulatory element-binding protein 2 (Mus musculus); experiment: Activation of SREBP2 in mouse Neuro2a cells assessed as increase in ERBB4 protein expression by immunoblot analysis; type: cell-based; conditions: filed as activator
[39] = molecular target: T1, Sterol regulatory element-binding protein 2 (Mus musculus); experiment: Activation of SREBP2 in mouse Neuro2a cells assessed as increase in phosphorylated ERBB4 protein expression by immunoblot analysis; type: cell-based; conditions: filed as activator
N2a [40] = experiment: Internalization of ERBB4 in mouse Neuro2a cells assessed as retention of ERBB4 level in lipids raft of cells by immunoblot analysis; type: functional, cell-based
N2a [41] = experiment: Upregulation of phosphorylated TrkA expression in mouse Neuro2a cells by immunoblot analysis; type: functional, cell-based

Which IC50 at 24 h [1] does the source give for `CCCCCC/C=C\CCCC(=O)N[C@@H](CO[C@@H]1O[C@H](CO)[C@@H](O[C@@H]2O[C@H](CO)[C@H](O[C@@H]3O[C@H](CO)[C@H](O)[C@H](O[C@@H]4O[C@H](CO)[C@H](O)[C@H](O)[C@H]4O)[C@H]3NC(C)=O)[C@H](O[C@]3(C(=O)O)C[C@H](O)[C@@H](NC(C)=O)[C@@H]([C@@H](O)[C@H](O)CO)O3)[C@H]2O)[C@H](O)[C@H]1O)[C@H](O)/C=C/CCCCCCCCCCCCC` here?
Its IC50 at 24 h is < 25 µM.

Which IC50 at 24 h [1] does the source give for `CCCCCCCCCCCCC/C=C/[C@@H](O)[C@H](CO[C@@H]1O[C@H](CO)[C@@H](O[C@@H]2O[C@H](CO)[C@H](O[C@@H]3O[C@H](CO)[C@H](O)[C@H](O[C@@H]4O[C@H](CO)[C@H](O)[C@H](O)[C@H]4O)[C@H]3NC(C)=O)[C@H](O[C@]3(C(=O)O)C[C@H](O)[C@@H](NC(C)=O)[C@@H]([C@@H](O)[C@H](O)CO)O3)[C@H]2O)[C@H](O)[C@H]1O)NC(=O)CCCCCCCCCCCCCCCCC` here?
Its IC50 at 24 h is > 200 µM.

What about the Activity (N2a [2]) of the same molecule?
Its Activity is “Active”.

What about the Activity (Cortical neurone [3]) of the same molecule?
The Activity was 80.1 um.

And the Activity (Cortical neurone [4])?
The Activity was “Active”.

And the Activity (N2a [5])?
The Activity was “Active”.

What about the Activity (N2a [6]) of the same molecule?
The Activity was “Active”.

And the Activity (N2a [7])?
The Activity was “Active”.

What about the Activity (N2a [8]) of the same molecule?
Its Activity is “Active”.

What about the Activity (N2a [9]) of the same molecule?
Its Activity is “Active”.

What about the Activity (N2a [10]) of the same molecule?
Its Activity is “Active”.

And the Activity (N2a [11])?
Its Activity is “Active”.

What about the Activity (N2a [12]) of the same molecule?
The Activity was “Active”.

And the Activity (N2a [13])?
The Activity was “Active”.

What about the Activity (N2a [14]) of the same molecule?
Its Activity is “Active”.

And the Activity (N2a [15])?
The Activity was “Active”.

What about the Activity (N2a [16]) of the same molecule?
Its Activity is “Active”.

And the Activity (N2a [17])?
The Activity was “Active”.

What about the Activity (N2a [18]) of the same molecule?
The Activity was “Active”.

What about the Activity (N2a [19]) of the same molecule?
Its Activity is “Active”.

And the Activity (N2a [20])?
Its Activity is “Active”.

And the Activity (N2a [21])?
The Activity was “Active”.

What about the Activity (N2a [22]) of the same molecule?
The Activity was “Active”.

What about the Activity (N2a [23]) of the same molecule?
The Activity was “Active”.

What about the Activity (N2a [24]) of the same molecule?
The Activity was “Active”.

And the Activity (N2a [25])?
Its Activity is “Active”.

And the Activity (N2a [26])?
Its Activity is “Active”.

What about the Activity (N2a [27]) of the same molecule?
Its Activity is “Active”.

What about the Activity (N2a [28]) of the same molecule?
The Activity was “Active”.

What about the Activity (N2a [29]) of the same molecule?
Its Activity is “Active”.

And the Activity (N2a [30])?
Its Activity is “Active”.

And the Activity (N2a [31])?
Its Activity is “Active”.

What about the Activity (N2a [32]) of the same molecule?
The Activity was “Active”.

What about the Activity (N2a [33]) of the same molecule?
The Activity was “Active”.

And the Activity (N2a [34])?
The Activity was “Active”.

What about the Activity (N2a [35]) of the same molecule?
The Activity was “Active”.

And the Activity (N2a [36])?
The Activity was “Active”.

What about the Activity [37] of the same molecule?
Its Activity is “Active”.

What about the Activity [38] of the same molecule?
Its Activity is “Active”.

And the Activity [39]?
The Activity was “Active”.

And the Activity (N2a [40])?
Its Activity is “Active”.

And the Activity (N2a [41])?
The Activity was “Active”.

With `CCCCCCCC/C=C/CCCCCCCC(=O)N[C@@H](CO[C@@H]1O[C@H](CO)[C@@H](O[C@@H]2O[C@H](CO)[C@H](O[C@@H]3O[C@H](CO)[C@H](O)[C@H](O[C@@H]4O[C@H](CO)[C@H](O)[C@H](O)[C@H]4O)[C@H]3NC(C)=O)[C@H](O[C@]3(C(=O)O)C[C@H](O)[C@@H](NC(C)=O)[C@@H]([C@@H](O)[C@H](O)CO)O3)[C@H]2O)[C@H](O)[C@H]1O)[C@H](O)/C=C/CCCCCCCCCCCCCCC` as the molecule, how does the IC50 at 24 h [1] read?
The IC50 at 24 h was > 200 µM.

And the Activity (N2a [2])?
Its Activity is “Active”.

For `CCCC/C=C\CCCCCCCC(=O)N[C@@H](CO[C@@H]1O[C@H](CO)[C@@H](O[C@@H]2O[C@H](CO)[C@H](O[C@@H]3O[C@H](CO)[C@H](O)[C@H](O[C@@H]4O[C@H](CO)[C@H](O)[C@H](O)[C@H]4O)[C@H]3NC(C)=O)[C@H](O[C@]3(C(=O)O)C[C@H](O)[C@@H](NC(C)=O)[C@@H]([C@@H](O)[C@H](O)CO)O3)[C@H]2O)[C@H](O)[C@H]1O)[C@H](O)/C=C/CCCCCCCCCCCCC`, which IC50 at 24 h [1] is on record?
The IC50 at 24 h was < 25 µM.
